Results as given in patent US12091402B2 (Avilar Therapeutics, Inc., priority 2021, dated 2024).
pEC50, pKd: −log10 of the molar value. Like-named read-outs stand apart in the source and are kept apart here.

Experiments:
[1] = biological target: T1, ASGPR receptor on the cell surface (HepG2 cells) (Homo sapiens, UniProt P07306); test: Ternary complex formation assay (flow cytometry, HepG2); type: cell-based
T1 construct: host or cells: HepG2
T1 sequence (P07306 1-291): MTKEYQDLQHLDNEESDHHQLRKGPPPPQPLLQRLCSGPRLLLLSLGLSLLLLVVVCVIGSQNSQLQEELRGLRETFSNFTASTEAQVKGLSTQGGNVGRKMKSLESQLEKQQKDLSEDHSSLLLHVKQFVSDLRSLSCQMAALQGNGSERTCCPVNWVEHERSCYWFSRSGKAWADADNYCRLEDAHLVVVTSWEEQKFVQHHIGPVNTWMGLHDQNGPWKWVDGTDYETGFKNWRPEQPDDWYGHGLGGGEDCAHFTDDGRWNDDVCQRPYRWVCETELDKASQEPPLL
T1 sequence (P07307 1-311 partner): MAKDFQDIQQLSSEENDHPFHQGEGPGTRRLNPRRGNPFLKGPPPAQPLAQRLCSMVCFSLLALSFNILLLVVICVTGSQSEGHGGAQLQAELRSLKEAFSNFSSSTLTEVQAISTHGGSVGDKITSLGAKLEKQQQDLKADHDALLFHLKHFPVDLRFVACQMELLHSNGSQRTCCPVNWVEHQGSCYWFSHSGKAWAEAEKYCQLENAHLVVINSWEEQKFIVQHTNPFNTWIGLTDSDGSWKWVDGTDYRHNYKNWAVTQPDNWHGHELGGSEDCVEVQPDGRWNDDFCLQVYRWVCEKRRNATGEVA
Summary of the method: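 HepG2 cells (1×10^5/well) incubated 1 h at 4 °C with 100 nM AF488-labeled anti-human IgG plus serial IgG-based degrader, or 100 nM AF488 rabbit anti-DNP plus serial DNP-based degrader. After washing, cell-associated AF488 MFI read by flow cytometry; peak MFI marks optimal degrader concentration for ternary complex.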

[2] = biological target: IgG; test: Affinity to IgG by surface plasmon resonance (SPR); type: binding
Protocol: Immobilization levels ranging from 1000-1300 resonance units (RU) are obtained. The running buffer is 10 mM HEPES, pH 7.4, 400 mM NaCl, 0.005% P20, […].

[3] = biological target: T2, ASGPR (Homo sapiens, UniProt P07306); test: Affinity to ASGPR by surface plasmon resonance (SPR)
T2 sequence (P07306 1-291): T1 sequence (P07306 1-291)

[4] = system: HepG2 cells; test: Cellular uptake assay of AF488-labeled antibody (HepG2); type: cell-based; settings: HepG2 cells
Summary of the method: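 Ternary-complex uptake via ASGPR was imaged after fixation: the read-out is AF488-positive HepG2 cells divided by total DAPI nuclei. Degrader dilutions (IgG- or DNP-based, 0.1% DMSO final) were co-incubated 6 h at 37° C. with 100 nM of the corresponding fluorescent antibody.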

[5] = 100 nM AF488-labeled antibody, 37° C. for 6 hours, class symbols, read-out: Uptake Assay EC50
[6] = Biacore 8K, 25° C., IgG on CM5 chip, read-out: IgG SPR Binding Kd

Row | pEC50 ([1]; HepG2 cells, 100 nM AF488-labeled antibody, 1 hour at 4° C., class symbols, read-out: Ternary Complex EC50) | pEC50 ([1]; HepG2 cells, ternary complex formation, read-out: TCF EC50) | pKd ([3]; read-out: ASGPR KD, SPR) | Structure (SMILES) | pKd ([2]; SPR, read-out: IgG KD) | pKd [3] | pEC50 [4, 5] | pEC50 ([4]; read-out: Uptake EC50) | pEC50 [1] | pKd [2, 6] | pEC50 ([1]; TCF EC50, HepG2 cells, ternary complex formation) | pEC50 ([1]; read-out: Ternary Complex EC50)
1 | > 7.00 | > 7.00 | > 7.00 | CC(C)C[C@@H]1NC(=O)[C@H](Cc2cnc[nH]2)NC(=O)[C@H](Cc2c[nH]c3ccccc23)NC(=O)[C@H](C)NC(=O)[C@@H]2CSSC[C@H](NC(=O)[C@H](Cc3c[nH]c4ccccc34)NC(=O)[C@H](C(C)C)NC(=O)[C@H](CC(C)C)NC(=O)[C@H](CCC(=O)O)NC(=O)CNC1=O)C(=O)N[C@@H]([C@@H](C)O)C(=O)N1CCC[C@@H]1C(=O)N1C[C@@H](NC(=O)CCCc3cn(C[C@H]4OC[C@H](Nc5cncc(C(F)(F)F)n5)[C@@H](O)[C@H]4O)nn3)C[C@H]1C(=O)N[C@@H](CC(=O)O)C(=O)N2 [Compound 51] | > 7.00 | > 7.00 | > 7.00 | > 7.00 | – | – | – | –
2 | – | – | – | CC(C)C[C@@H]1NC(=O)[C@H](Cc2cnc[nH]2)NC(=O)[C@H](Cc2c[nH]c3ccccc23)NC(=O)[C@H](C)NC(=O)[C@@H]2CSSC[C@H](NC(=O)[C@H](Cc3c[nH]c4ccccc34)NC(=O)[C@H](C(C)C)NC(=O)[C@H](CC(C)C)NC(=O)[C@H](CCC(=O)O)NC(=O)CNC1=O)C(=O)N[C@@H]([C@@H](C)O)C(=O)N1CCC[C@@H]1C(=O)N1C[C@@H](NC(=O)CCOCCNC(=O)CCCc3cn(C[C@@]45CO[C@@H](O4)[C@H](Nc4nc(Cl)ns4)[C@@H](O)[C@H]5O)nn3)C[C@H]1C(=O)N[C@@H](CC(=O)O)C(=O)N2 [Compound 7] | – | > 7.00 | 6.30 to 7.00 | – | > 7.00 | > 7.00 | – | –
3 | – | – | – | CC(C)C[C@@H]1NC(=O)[C@H](Cc2cnc[nH]2)NC(=O)[C@H](Cc2c[nH]c3ccccc23)NC(=O)[C@H](C)NC(=O)[C@@H]2CSSC[C@H](NC(=O)[C@H](Cc3c[nH]c4ccccc34)NC(=O)[C@H](C(C)C)NC(=O)[C@H](CC(C)C)NC(=O)[C@H](CCC(=O)N(C)C)NC(=O)CNC1=O)C(=O)N[C@@H]([C@@H](C)O)C(=O)N1CCC[C@@H]1C(=O)N1C[C@@H](NC(=O)CNC(COCCC(=O)NCCOCCOCCOCCOC[C@H]3OC[C@H](Nc4cncc(C(F)(F)F)n4)[C@@H](O)[C@H]3O)COCCC(=O)NCCOCCOCCOCCOC[C@H]3OC[C@H](Nc4cncc(C(F)(F)F)n4)[C@@H](O)[C@H]3O)C[C@H]1C(=O)N[C@@H](C)C(=O)N2 [Compound 77] | > 7.00 | > 7.00 | – | > 7.00 | – | – | > 7.00 | –
4 | – | – | – | CC(C)C[C@@H]1NC(=O)[C@H](Cc2c[nH]cn2)NC(=O)[C@H](Cc2c[nH]c3ccccc23)NC(=O)[C@H](C)NC(=O)[C@@H]2CSSC[C@H](NC(=O)[C@H](Cc3c[nH]c4ccccc34)NC(=O)[C@H](C(C)C)NC(=O)[C@H](CC(C)C)NC(=O)[C@H](CCC(=O)O)NC(=O)CNC1=O)C(=O)N[C@@H]([C@@H](C)O)C(=O)N1CCC[C@@H]1C(=O)N1C[C@@H](NC(=O)CCCc3cn(CCCCCC(=O)NC(COCCC(=O)NCCOCCOCCOCCOC[C@H]4OC[C@H](Nc5nccc(C(F)(F)F)n5)[C@@H](O)[C@H]4O)COCCC(=O)NCCOCCOCCOCCOC[C@H]4OC[C@H](Nc5nccc(C(F)(F)F)n5)[C@@H](O)[C@H]4O)nn3)C[C@H]1C(=O)N[C@@H](CC(=O)O)C(=O)N2 [Compound 53] | > 7.00 | > 7.00 | > 7.00 | > 7.00 | > 7.00 | > 7.00 | – | > 7.00
5 | – | – | – | CC(C)C[C@@H]1NC(=O)[C@H](Cc2c[nH]cn2)NC(=O)[C@H](Cc2c[nH]c3ccccc23)NC(=O)[C@H](C)NC(=O)[C@@H]2CSSC[C@H](NC(=O)[C@H](Cc3c[nH]c4ccccc34)NC(=O)[C@H](C(C)C)NC(=O)[C@H](CC(C)C)NC(=O)[C@H](CCC(=O)O)NC(=O)CNC1=O)C(=O)N[C@@H]([C@@H](C)O)C(=O)N1CCC[C@@H]1C(=O)N1C[C@@H](NC(=O)CCOCCOCCOCCNC(=O)CCCc3cn(CCCCCC(=O)NC(COCCC(=O)NCCOCCOCCOCCOC[C@@]45CO[C@@H](O4)[C@H](Nc4nc(Cl)ns4)[C@@H](O)[C@H]5O)COCCC(=O)NCCOCCOCCOCCOC[C@@]45CO[C@@H](O4)[C@H](Nc4nc(Cl)ns4)[C@@H](O)[C@H]5O)nn3)C[C@H]1C(=O)N[C@@H](CC(=O)O)C(=O)N2 [Compound 8] | – | > 7.00 | > 7.00 | – | > 7.00 | > 7.00 | – | –
6 | – | – | – | CC(C)C[C@@H]1NC(=O)[C@H](Cc2c[nH]cn2)NC(=O)[C@H](Cc2c[nH]c3ccccc23)NC(=O)[C@H](C)NC(=O)[C@@H]2CSSC[C@H](NC(=O)[C@H](Cc3c[nH]c4ccccc34)NC(=O)[C@H](C(C)C)NC(=O)[C@H](CC(C)C)NC(=O)[C@H](CCC(=O)O)NC(=O)CNC1=O)C(=O)N[C@@H]([C@@H](C)O)C(=O)N1CCC[C@@H]1C(=O)N1C[C@@H](NC(=O)CCOCCNC(=O)CCCc3cn(CCCCCC(=O)NC(COCCC(=O)NCCOCCOCCOCCOC[C@H]4OC[C@H](Nc5nccc(C(F)(F)F)n5)[C@@H](O)[C@H]4O)COCCC(=O)NCCOCCOCCOCCOC[C@H]4OC[C@H](Nc5nccc(C(F)(F)F)n5)[C@@H](O)[C@H]4O)nn3)C[C@H]1C(=O)N[C@@H](CC(=O)O)C(=O)N2 [Compound 6] | – | > 7.00 | > 7.00 | – | > 7.00 | > 7.00 | – | –
7 | – | – | – | CC(C)C[C@@H]1NC(=O)[C@H](Cc2c[nH]cn2)NC(=O)[C@H](Cc2c[nH]c3ccccc23)NC(=O)[C@H](C)NC(=O)[C@@H]2CSSC[C@H](NC(=O)[C@H](Cc3c[nH]c4ccccc34)NC(=O)[C@H](C(C)C)NC(=O)[C@H](CC(C)C)NC(=O)[C@H](CCC(=O)O)NC(=O)CNC1=O)C(=O)N[C@@H]([C@@H](C)O)C(=O)N1CCC[C@@H]1C(=O)N1C[C@@H](NC(=O)c3ccc(N4CCC(CN5CCN(C[C@H]6OC[C@H](Nc7cncc(C(F)(F)F)n7)[C@@H](O)[C@H]6O)CC5)CC4)cc3)C[C@H]1C(=O)N[C@@H](CC(=O)O)C(=O)N2 [Compound 68] | > 7.00 | > 7.00 | – | > 7.00 | > 7.00 | – | – | –
8 | – | – | – | CC(C)C[C@@H]1NC(=O)[C@H](Cc2c[nH]cn2)NC(=O)[C@H](Cc2c[nH]c3ccccc23)NC(=O)[C@H](C)NC(=O)[C@@H]2CSSC[C@H](NC(=O)[C@H](Cc3c[nH]c4ccccc34)NC(=O)[C@H](C(C)C)NC(=O)[C@H](CC(C)C)NC(=O)[C@H](CCC(=O)N(C)C)NC(=O)CNC1=O)C(=O)N[C@@H]([C@@H](C)O)C(=O)N1CCC[C@@H]1C(=O)N1C[C@@H](NC(=O)CNC(COCCC(=O)NCCOCCOCCOCCOC[C@H]3OC[C@H](Nc4cncc(C(F)(F)F)n4)[C@@H](O)[C@H]3O)COCCC(=O)NCCOCCOCCOCCOC[C@H]3OC[C@H](Nc4cncc(C(F)(F)F)n4)[C@@H](O)[C@H]3O)C[C@H]1C(=O)N[C@@H](CC(=O)O)C(=O)N2 [Compound 75] | > 7.00 | > 7.00 | – | > 7.00 | > 7.00 | – | – | –
9 | – | – | – | CC(C)C[C@@H]1NC(=O)[C@H](Cc2c[nH]cn2)NC(=O)[C@H](Cc2c[nH]c3ccccc23)NC(=O)[C@H](C)NC(=O)[C@@H]2CSSC[C@H](NC(=O)[C@H](Cc3c[nH]c4ccccc34)NC(=O)[C@H](C(C)C)NC(=O)[C@H](CC(C)C)NC(=O)[C@H](CCC(=O)O)NC(=O)CNC1=O)C(=O)N[C@@H]([C@@H](C)O)C(=O)N1CCC[C@@H]1C(=O)N1C[C@@H](NC(=O)CCOCCNC(=O)CCCc3cn(CCCCCC(=O)NC(COCCC(=O)NCCOCCOCCOCCOC[C@@]45CO[C@@H](O4)[C@H](Nc4nc(Cl)ns4)[C@@H](O)[C@H]5O)COCCC(=O)NCCOCCOCCOCCOC[C@@]45CO[C@@H](O4)[C@H](Nc4nc(Cl)ns4)[C@@H](O)[C@H]5O)nn3)C[C@H]1C(=O)N[C@@H](CC(=O)O)C(=O)N2 [Compound 9] | – | > 7.00 | > 7.00 | – | > 7.00 | > 7.00 | – | –
